Test results from article PMC6385813, “Macrocyclisation of small peptides enabled by oxetane incorporation” (Chemical Science, 2019).

Assay: head-to-tail lactamisation of free linear peptides (H-/-OH), DEPBT (2 equiv), iPr2EtN (2 equiv)
Settings: DMF, 1.0 mM, 25.0 °C

SMILES: CC(C)C[C@@H]1NC(=O)[C@H](Cc2ccc(O)cc2)NC(=O)[C@H](C)NC2(CNC(=O)[C@H](C)NC1=O)COC2 [H-Ala-GOx-Ala-Tyr-Leu-OH]
- ring closure, isolated yield (from CC(C)C[C@H](NC(=O)[C@H](Cc1ccc(O)cc1)NC(=O)[C@H](C)NC1(CNC(=O)[C@H](C)N)COC1)C(=O)O, 15-membered ring, 24.0 h): 57%

SMILES: CC(C)C[C@@H]1NC(=O)[C@H](Cc2ccc(O)cc2)NC(=O)[C@H](C)NC(=O)CNC(=O)[C@H](C)NC1=O [H-Ala-Gly-Ala-Tyr-Leu-OH]
- ring closure, isolated yield (from CC(C)C[C@H](NC(=O)[C@H](Cc1ccc(O)cc1)NC(=O)[C@H](C)NC(=O)CNC(=O)[C@H](C)N)C(=O)O, 15-membered ring, 24.0 h): 40%

SMILES: CC(C)C[C@@H]1NC(=O)[C@H](CC(=O)OC(C)(C)C)NC(=O)CNC2(CNC1=O)COC2 [H-Asp(tBu)-Leu-GOx-Gly-OH]
- ring closure, isolated yield (from CC(C)C[C@H](NC(=O)[C@@H](N)CC(=O)OC(C)(C)C)C(=O)NCC1(NCC(=O)O)COC1, 12-membered ring, 48.0 h): 49%

SMILES: CC(C)C[C@@H]1NC(=O)[C@H](CC(=O)OC(C)(C)C)NC(=O)CNC(=O)CNC1=O [H-Asp(tBu)-Leu-Gly-Gly-OH]
- ring closure, isolated yield (from CC(C)C[C@H](NC(=O)[C@@H](N)CC(=O)OC(C)(C)C)C(=O)NCC(=O)NCC(=O)O, 12-membered ring, 48.0 h): 14%

SMILES: CC(C)C[C@@H]1NC(=O)[C@H]2CCCN2C(=O)CNC2(CNC1=O)COC2 [H-D-Pro-Leu-GOx-Gly-OH]
- ring closure, isolated yield (from CC(C)C[C@H](NC(=O)[C@H]1CCCN1)C(=O)NCC1(NCC(=O)O)COC1, 12-membered ring, 48.0 h): 54%

SMILES: CC(C)C[C@@H]1NC(=O)[C@H]2CCCN2C(=O)CNC(=O)CNC1=O [H-D-Pro-Leu-Gly-Gly-OH]
- ring closure, isolated yield (from CC(C)C[C@H](NC(=O)[C@H]1CCCN1)C(=O)NCC(=O)NCC(=O)O, 12-membered ring, 48.0 h): 0%

SMILES: CC(C)C[C@@H]1NC(=O)[C@H](Cc2ccc(O)cc2)NC(=O)[C@H](C)NC2(CNC(=O)[C@H](C)NC1=O)COC2 [H-GOx-Ala-Tyr-Leu-Ala-OH]
- ring closure, isolated yield (from CC(C)C[C@H](NC(=O)[C@H](Cc1ccc(O)cc1)NC(=O)[C@H](C)NC1(CN)COC1)C(=O)N[C@@H](C)C(=O)O, 15-membered ring, 24.0 h): 43%

SMILES: CC(C)C[C@@H]1NC(=O)[C@H](Cc2ccc(O)cc2)NC(=O)[C@H](C)NC(=O)CNC(=O)[C@H](C)NC1=O [H-Gly-Ala-Tyr-Leu-Ala-OH]
- ring closure, isolated yield (from CC(C)C[C@H](NC(=O)[C@H](Cc1ccc(O)cc1)NC(=O)[C@H](C)NC(=O)CN)C(=O)N[C@@H](C)C(=O)O, 15-membered ring): 30%

SMILES: CC(C)C[C@@H]1NC(=O)[C@H](Cc2ccc(O)cc2)NC(=O)[C@H](C)NC(=O)C(C)(C)NC(=O)[C@H](C)NC1=O [H-Leu-Ala-Aib-Ala-Tyr-OH]
- ring closure, isolated yield (from CC(C)C[C@H](N)C(=O)N[C@@H](C)C(=O)NC(C)(C)C(=O)N[C@@H](C)C(=O)N[C@@H](Cc1ccc(O)cc1)C(=O)O, 15-membered ring, 24.0 h): 29%

SMILES: CC(C)C[C@@H]1NC(=O)[C@H](Cc2ccc(O)cc2)NC(=O)[C@H](C)NC2(CNC(=O)[C@H](C)NC1=O)COC2 [H-Leu-Ala-GOx-Ala-Tyr-OH]
- ring closure, isolated yield (from CC(C)C[C@H](N)C(=O)N[C@@H](C)C(=O)NCC1(N[C@@H](C)C(=O)N[C@@H](Cc2ccc(O)cc2)C(=O)O)COC1, 15-membered ring, 24.0 h): 51%

SMILES: CC(C)C[C@@H]1NC(=O)[C@H](Cc2ccc(O)cc2)NC(=O)[C@@H]2CCCN2C2(CNC(=O)[C@H](C)NC1=O)COC2 [H-Leu-Ala-GOx-Pro-Tyr-OH]
- ring closure, isolated yield (from CC(C)C[C@H](N)C(=O)N[C@@H](C)C(=O)NCC1(N2CCC[C@H]2C(=O)N[C@@H](Cc2ccc(O)cc2)C(=O)O)COC1, 15-membered ring, 48.0 h): 48%

SMILES: CC(C)C[C@@H]1NC(=O)[C@H](Cc2ccc(O)cc2)NC(=O)[C@H](C)NC(=O)CNC(=O)[C@H](C)NC1=O [H-Leu-Ala-Gly-Ala-Tyr-OH]
- ring closure, isolated yield (from CC(C)C[C@H](N)C(=O)N[C@@H](C)C(=O)NCC(=O)N[C@@H](C)C(=O)N[C@@H](Cc1ccc(O)cc1)C(=O)O, 15-membered ring, 24.0 h): 31%

SMILES: CC(C)C[C@@H]1NC(=O)[C@H](Cc2ccc(O)cc2)NC(=O)[C@@H]2CCCN2C(=O)CNC(=O)[C@H](C)NC1=O [H-Leu-Ala-Gly-Pro-Tyr-OH]
- ring closure, isolated yield (from CC(C)C[C@H](N)C(=O)N[C@@H](C)C(=O)NCC(=O)N1CCC[C@H]1C(=O)N[C@@H](Cc1ccc(O)cc1)C(=O)O, 15-membered ring): 13%

SMILES: CC(C)C[C@@H]1NC(=O)[C@H](Cc2ccc(O)cc2)NC(=O)[C@H](C)NC(C)(C)CNC(=O)[C@H](C)NC1=O [H-Leu-Ala-NHCH2C(Me)2-Ala-Tyr-OH]
- ring closure, isolated yield (from CC(C)C[C@H](N)C(=O)N[C@@H](C)C(=O)NCC(C)(C)N[C@@H](C)C(=O)N[C@@H](Cc1ccc(O)cc1)C(=O)O, 15-membered ring, 24.0 h): 32%

SMILES: CC(C)C[C@@H]1NC(=O)[C@H](Cc2ccc(O)cc2)NC(=O)[C@H](C)NCCNC(=O)[C@H](C)NC1=O [H-Leu-Ala-NHCH2CH2-Ala-Tyr-OH]
- ring closure, isolated yield (from CC(C)C[C@H](N)C(=O)N[C@@H](C)C(=O)NCCN[C@@H](C)C(=O)N[C@@H](Cc1ccc(O)cc1)C(=O)O, 15-membered ring, 24.0 h): 28%

SMILES: CC(C)C[C@@H]1NC(=O)[C@H](Cc2ccc(O)cc2)NC(=O)[C@H](C)NC(=O)CN(C)C(=O)[C@H](C)NC1=O [H-Leu-Ala-Sar-Ala-Tyr-OH]
- ring closure, isolated yield (from CC(C)C[C@H](N)C(=O)N[C@@H](C)C(=O)N(C)CC(=O)N[C@@H](C)C(=O)N[C@@H](Cc1ccc(O)cc1)C(=O)O, 15-membered ring, 24.0 h): 36%

SMILES: CC(C)C[C@@H]1NC(=O)[C@H](Cc2ccc(O)cc2)NC(=O)[C@H](C)NC(=O)CCNC(=O)[C@H](C)NC1=O [H-Leu-Ala-βAla-Ala-Tyr-OH]
- ring closure, isolated yield (from CC(C)C[C@H](N)C(=O)N[C@@H](C)C(=O)NCCC(=O)N[C@@H](C)C(=O)N[C@@H](Cc1ccc(O)cc1)C(=O)O, 16-membered ring, 24.0 h): 39%

SMILES: CC(C)C[C@@H]1NC(=O)[C@H](Cc2ccccc2)NC(=O)[C@H]([C@@H](C)OC(C)(C)C)NC2(CNC(=O)[C@H](C(C)C)NC(=O)[C@H](Cc3ccc(OC(C)(C)C)cc3)NC1=O)COC2 [H-Leu-Tyr(tBu)-Val-GOx-Thr(tBu)-Phe-OH]
- ring closure, isolated yield (from CC(C)C[C@H](N)C(=O)N[C@@H](Cc1ccc(OC(C)(C)C)cc1)C(=O)N[C@H](C(=O)NCC1(N[C@H](C(=O)N[C@@H](Cc2ccccc2)C(=O)O)[C@@H](C)OC(C)(C)C)COC1)C(C)C, 18-membered ring, 48.0 h): 58%

SMILES: CC(C)C[C@@H]1NC(=O)[C@H](Cc2c[nH]c3ccccc23)NC(=O)CNC2(COC2)[C@H](C)NC1=O [H-Trp-Leu-AOx-Gly-OH]
- ring closure, isolated yield (from CC(C)C[C@H](NC(=O)[C@@H](N)Cc1c[nH]c2ccccc12)C(=O)N[C@@H](C)C1(NCC(=O)O)COC1, 12-membered ring, 48.0 h): 50%

SMILES: CC(C)C[C@@H]1NC(=O)[C@H](Cc2c[nH]c3ccccc23)NC(=O)CNC(=O)[C@H](C)NC1=O [H-Trp-Leu-Ala-Gly-OH]
- ring closure, isolated yield (from CC(C)C[C@H](NC(=O)[C@@H](N)Cc1c[nH]c2ccccc12)C(=O)N[C@@H](C)C(=O)NCC(=O)O, 12-membered ring, 48.0 h): 21%

SMILES: CC(C)C[C@@H]1NC(=O)[C@H](Cc2c[nH]c3ccccc23)NC(=O)CNC2(CNC1=O)COC2 [H-Trp-Leu-GOx-Gly-OH]
- ring closure, isolated yield (from CC(C)C[C@H](NC(=O)[C@@H](N)Cc1c[nH]c2ccccc12)C(=O)NCC1(NCC(=O)O)COC1, 12-membered ring, 48.0 h): 65%

SMILES: CC(C)C[C@@H]1NC(=O)[C@H](Cc2c[nH]c3ccccc23)NC(=O)CNC(=O)CNC1=O [H-Trp-Leu-Gly-Gly-OH]
- ring closure, isolated yield (from CC(C)C[C@H](NC(=O)[C@@H](N)Cc1c[nH]c2ccccc12)C(=O)NCC(=O)NCC(=O)O, 12-membered ring, 48.0 h): 15%

SMILES: CC(C)C[C@@H]1NC(=O)[C@H](Cc2ccc(O)cc2)NC(=O)[C@H](C)NC2(CNC(=O)[C@H](C)NC1=O)COC2 [H-Tyr-Leu-Ala-GOx-Ala-OH]
- ring closure, isolated yield (from CC(C)C[C@H](NC(=O)[C@@H](N)Cc1ccc(O)cc1)C(=O)N[C@@H](C)C(=O)NCC1(N[C@@H](C)C(=O)O)COC1, 15-membered ring, 24.0 h): 31%

SMILES: CC(C)C[C@@H]1NC(=O)[C@H](Cc2ccc(O)cc2)NC(=O)[C@H](C)NC(=O)CNC(=O)[C@H](C)NC1=O [H-Tyr-Leu-Ala-Gly-Ala-OH]
- ring closure, isolated yield (from CC(C)C[C@H](NC(=O)[C@@H](N)Cc1ccc(O)cc1)C(=O)N[C@@H](C)C(=O)NCC(=O)N[C@@H](C)C(=O)O, 15-membered ring): 24%
